# Test results from patent publication US20200129450A1, “COMPOSITION COMPRISING OSMUNDACETONE OR PHARMACEUTICALLY ACCEPTABLE SALT THEREOF FOR PREVENTING OR TREATING BONE DISEASE” (KORPHARM CO., LTD., priority 2016, published 2020).
# “And” between values parts separate entries of the source, which are not always exact repeats. Identical values can stand only once.
# Tests used:
# Type in all cases: cell-based, mouse
# OCN in MC3T3-E1 cells = test: Western blot, OCN production by osteoblasts; conditions: 50 μM
# Method: In order to analyze the expression of osteoblast differentiation markers during a differentiation procedure, 3×10^5 MC3T3-E1 cells were dispensed in a 100 mm culture plate together with 10 mL of complete α-MEM containing ascorbic acid (50 μg/mL) and 10 mM R-glycerophosphate per well. Here, 50 μM osmundacetone was added or not added, and the cells were incubated at 37 […] in a 5% CO2 incubator for 21 days while the medium was exchanged every 3-4 days.
# The negative control cells were cultured without differentiation factors, and the osteoblasts and a culture thereof were dispensed, and then collected on day 7, 14, or 21.
# The cells were lysed using RIPA buffer, and then the expression of runt-related transcription factor 2 (RUNX2) was analyzed. Also for analysis of OCN secretion, the culture was collected, and normalized by cellular DNA.
# Proteins were analyzed using SDS-PAGE on 12.5% […] gels, and transferred on polyvinylidene difluoride (PVDF) membrane through electrophoresis.
# The membrane was blocked using non-fat milk, and examined using anti-RUNX2 (D1H7) rabbit monoclonal antibody (#8486, Cell Signaling Technology, MA, USA) or anti-OCN (FL-95) antibody (# sc-30045, Santa Cruz Biotechnology, TX, USA). Anti-actin antibody (# M177-3, MEDICAL & BIOLOGICAL LABORATORIES CO., LTD., Nagoya, Aichi, Japan) was used as an internal reference. […]
# [1] = tested on: osteoclasts co-incubated with MC3T3-E1 cells; test: Co-culture of osteoclasts and osteoblasts: osteoclast proliferation and differentiation; conditions: 10 μM
# Method: 1×10^5 C57BL/6 mouse bone marrow mononuclear cells per well of a 48-well plate were prepared in the same manner as described above, and co-incubated together with 1.5×10^4 MC3T3-E1 murine osteoblasts, using 500 μL of α-MEM containing 10% FBS and 1% antibiotic (100 U/mL penicillin G and […] streptomycin) in the conditions of 37° C. and 5% CO2 while the medium was exchanged every three days.
# Positive control cells were co-incubated together with osteoclast differentiation factors M-CSF (60 ng/mL) and RANKL (150 ng/mL), and osteoblast differentiation factors ascorbic acid (50 μg/mL) and 10 mM R-glycerophosphate.
# Negative control cells were incubated by adding only M-CSF as a differentiation factor. In order to examine effects of osmundacetone on the differentiation of osteoclasts and osteoblasts, osmundacetone were administered at a final concentration of 10 μM into the positive control cells on day 1 after the cells were dispensed on the plate.
# In order to investigate whether or not osmundacetone has ability to inhibit osteoclast differentiation and activate osteoblast differentiation simultaneously, bone marrow mononuclear cells collected from C57BL/6 mice and MC3T3-E1 cells as osteoblast precursor cells were co-incubated in a 48-well plate at cell concentrations of 1×10^5 bone marrow cells and 3×10^3 MC3T3-E1 cells per well. […]
# ALP activity in MC3T3-E1 = test: Measurement of ALP activity in MC3T3-E1; conditions: MC3T3-E1, day 14, mean±s.d.
# Method: ALP activity was assessed using Quantichrom ALP Assay Kit (Bioassay Systems, Hayward, Calif., USA) according to manufacturer's instructions.
# Briefly, 3×10^3 MC3T3-E1 cells were dispensed in a 96-well plate together with […] of complete α-MEM containing ascorbic acid (50 μg/mL) and 10 mM β-glycerophosphate per well. Here, osmundacetone (10 μM and 50 μM) was added or not added, and the medium was exchanged every 3-4 days.
# On day 14 of the incubation, the colorimetric change due to ALP activity in the cell fraction was measured using a spectrophotometer plate reader (Molecular Devices, Sunnyvale, Calif., USA) at 405 nm (Kim et al., 2016). The % activation of ALP activity was shown by comparing ALP activity of cells treated with an experimental compound and ALP activity of the non-treated control cells.
# mature osteoclasts = test: Bone resorption assay (OsteoLyse Assay Kit) with mature osteoclasts; conditions: 8 μM (IC50 concentration), mature osteoclasts treated for 3 days, normalized by cellular DNA
# Method: The quantitative measurement of in vitro osteoclast-mediated degradation of human bone collagen was carried out using the OsteoLyse™ Assay Kit (Lonza Walkersville, Inc. Walkersville, Md., USA) according to manufacturer's instructions.
# This assay allows a direct measurement of the release of […] into the osteoclast resorption lacuna (Delaisse et al., 2003).
# Briefly, 2×10^4 mouse bone marrow cells prepared above were dispensed in 96-well OsteoLyse™ cell culture plate coated with europium-conjugated collagen.
# The cells were incubated in 0.1 mL of complete α-MEM per well in the presence of M-CSF (60 ng/mL) and RANKL (150 ng/mL) in the conditions of 37° C. and 5% CO2 for 6 days. Thereafter, the medium was exchanged on day 3 of the dispensing.
# In order to measure the ability to inhibit the mature osteoclastic functions, the medium was exchanged on day 6, and osmundacetone was added at an IC50 concentration obtained from TRAP analysis.
# After the mature osteoclasts were treated with osmundacetone for 3 days, 10 μL of a supernatant of the cell culture was taken, and placed in a second 96-well analysis plate containing fluorophore-Releasing reagent. The degraded collagen was measured using a time-resolved fluorescence fluorimeter, Wallac Victor (Perkin Elmer, Waltham, Mass., USA). […]
structure (smiles),measurement,setting,value
"CC(=O)/C=C/c1ccc(O)c(O)c1 [Osmundacetone, (3E)-4-(3,4-dihydroxyphenyl)-3-buten-2-one]","OCN production by osteoblasts, increase compared with non-treated positive control cells",OCN in MC3T3-E1 cells; day 14,2.9 times
same,"OCN production by osteoblasts, increase compared with non-treated positive control cells",OCN in MC3T3-E1 cells; day 21,1.2 times
same,proliferation and differentiation of osteoclasts in co-incubation,[1],completely inhibited
same,mature osteoclasts in co-incubation,[1]; day 6 after administration,completely disappeared
same,% Activation of ALP activity,ALP activity in MC3T3-E1; 10 μM,115 ± 9.4%
same,% Activation of ALP activity,ALP activity in MC3T3-E1; 50 μM,279 ± 61 %
same,% Activation of ALP activity,"ALP activity in MC3T3-E1; 50 μM, listed as osmundacetone",279±61% and 280%
same,"bone resorption function of mature osteoclasts, % that of non-treated osteoclasts",mature osteoclasts,58.7±13%
